Test results: US10231979B2, “Modulation of inflammation using progesterone metabolites” (Indiana University Research and Technology Corporation, priority 2015, dated 2019)
Like-named read-outs stand apart in the source and are kept apart here.

What was measured:
[1] = system: CYP3A; test: CYP3A production of 16α-OHP and 6β-OHP in human liver microsomes (HLMs); details: p<0.01
[2] = system: uterine horns from wild-type (WT) C57BL/6J female mice; test: Spontaneous uterine contractility, isolated uterine horns in tissue organ bath; details: for IC50: spontaneous, dose-response 10^-9 to 10^-6 mol/L; for Contractile Frequency/10 min (% of baseline), Drug / Contractile Force (% of baseline), Drug: spontaneous contractility; for Contractile Force (% of baseline), Drug: AUC as % of baseline AUC
Method: (§1) FIGS. 2A & 2B are representative contraction tracings of uterine horns from wild-type (WT) C57BL/6J female mice. FIG. 2A: Uterine horns were isolated and suspended in a tissue organ bath at 0.5 g of tension. Once equilibrated, selected progestin treatments were added in successively increasing concentrations from 10^−9 to 10^−6 mol/L in 20-minute intervals to assess effect on spontaneous contractile activity (progesterone treatment, bottom panel). The contralateral horn from each mouse was treated with a matching ethanol vehicle (top panel). All contraction responses were measured and reported as the area under the contraction curve (AUC), normalized to the AUC of the spontaneous contraction pattern that preceded treatment. FIG. 2B: Treatment effect on oxytocin-induced contractility was assessed by exposing horns to selected progestin treatments (10^−6 mol/L), followed by increasing doses of oxytocin (Oxt) (1, 10, 50, and 100 nmol/L) in 10-minute intervals (bottom panel). The contralateral horn from each mouse was treated with a matching ethanol vehicle (top panel). Contraction responses were measured and reported as described above.
(§2) All progestins were solubilized in ethanol and then diluted in phosphate-buffered saline to the desired molar concentration. […] The concentration of ethanol decreased parallel to the progestin dose in order to minimize the effect of the solvent on uterine contractility.
(§3) Virgin nonpregnant wild-type C57BL/6J female mice (Jackson Labs, Bar Harbor, Me.) were obtained at 10 to 12 weeks of age and fed a standard diet. Mice were euthanized by an IACUC-approved protocol, and each of the 2 uterine horns were removed. A 1 cm×0.5 cm segment of the uterine horn was suspended using 4-0 silk suture between a stainless steel wire hook connected to a Radnoti force displacement transducer (Radnoti LLC, Monrovia, Calif.) and a glass hook inside an organ bath that served as an anchor. The bath was filled with modified Krebs buffer (118 mmol/L NaCl, […], 1.2 mmol/L MgSO4, 1.2 mmol/L KH2PO4, 2.5 mmol/L CaCl2, 25 mmol/L NaHCO3, and 11 mmol/L glucose, pH 7.4), maintained at 37° C., and constantly bubbled with a premixed gas consisting of 20% O2, 5% CO2, and balance N2. Uterine horns were equilibrated at 0.5 g of tension for approximately 30 minutes until a spontaneous contraction pattern was established.
A total of 60 mice were utilized to assess the effect of the selected treatments on uterine contractility, 30 in the spontaneous contraction group and 30 in the oxytocin-induced group. Six mice were in each progestin treatment group during both spontaneous and oxytocin-induced contractility arms of the study. To determine the nongenomic (acute) effect of the progestin treatments on spontaneous uterine contractility, a segment of uterine horn from each mouse was exposed to a single progestin (progesterone, 17-OHPC, 2α-OHP, 6β-OHP, or 16αOHP), while a segment of the contralateral horn was exposed to a matching dose of ethanol vehicle. After a spontaneous contraction pattern was achieved, the progestin treatment was added to the tissue organ bath in successively increasing concentrations from 10^−9 to 10^−6 mol/L in 20-minute intervals. At the end of the treatments, the tissue was washed in modified Krebs buffer and then exposed to KCl (60 mmol/L) to elicit a tetanic response and confirm tissue viability.
Uterine contraction responses were recorded using LabChart Pro (ADInstruments, Colorado Springs, Colo.) software as the force generated with time (g×min). Baseline uterine contractility was calculated as the area under the curve (AUC) for a 10-minute period of spontaneous contractions. The AUC of the uterine contractile response to each treatment (progestin or oxytocin) was determined and expressed as a percentage of the baseline AUC observed during spontaneous contraction. […]

[3] = system: uterine horns from wild-type (WT) C57BL/6J female mice; test: Oxytocin-induced uterine contractility after progestin pretreatment, isolated uterine horns in tissue organ bath; details: for EC50: oxytocin-induced dose-response (1-100 nmol/L oxytocin) after progestin pretreatment 10^-6 mol/L; for Contractile Force (% of baseline), Drug / Contractile Frequency/10 min (% of baseline), Drug: oxytocin-induced, progestin pretreatment 10^-6 mol/L
Method: as §1, §2, §3
To determine the nongenomic effect of progestin treatments on oxytocin-induced uterine contractility, the uterine horns were pretreated with a single progestin at 10^−6 mol/L for 10 minutes after a spontaneous contractile pattern was established. The contralateral horn from the same mouse was treated with ethanol vehicle at a matching concentration. The uterine horns were subsequently exposed to increasing concentrations of oxytocin (1, 10, 50, and 100 nmol/L) in 10-minute intervals. At the end of the oxytocin treatments, the tissue was washed and then exposed to KCl (60 mmol/L) to elicit a tetanic response and confirm tissue viability.
Uterine contraction responses were recorded using LabChart Pro (ADInstruments, Colorado Springs, Colo.) software as the force generated with time (g×min). Baseline uterine contractility was calculated as the area under the curve (AUC) for a 10-minute period of spontaneous contractions. The AUC of the uterine contractile response to each treatment (progestin or oxytocin) was determined and expressed as a percentage of the baseline AUC observed during spontaneous contraction. […] To account for repeated measurements for individual muscle strips at increasing treatment doses, a repeated measures 2-way analysis of variance model was used to compare the dose-response curves. Each dose-response curve was fit by nonlinear regression and compared using an extra sum of squares F test. The mean max-fit response was compared between each progestin and vehicle control to determine maximum treatment efficacy. […]

[4] = system: primary uterine smooth muscle cells (UtSMC); test: IL-6 production in UtSMC stimulated with LPS; assay type: cell-based; details: UtSMC pre-treated, then LPS; for IL-6: LPS positive control 121.7 pg/mL; for IL-6, % of positive control: relative to DMSO+LPS positive control
Method: In this Example, the effect of progesterone metabolites 16αOHP and 6β-OHP on inflammation in primary uterine smooth muscle cells (UtSMC) was analyzed.
UtSMC were cultured in the presence of DMSO and one of the following: (1) progesterone; (2) […]; (3) 6β-OHP; and (4) 16αOHP. Lipopolysaccharide (LPS) was then added to the culture to stimulate an immune inflammatory reaction. Experiments were performed in triplicate.

[5] = system: monocyte-derived macrophage populations; test: Macrophage cell surface marker expression of monocyte-derived macrophages; assay type: cell-based; details: relative to DMSO treated control
Description: FIG. 7 is a graph depicting characterization of monocyte-derived macrophage populations after pre-treatment with progesterone and progesterone metabolites. Expression of macrophage cell surface markers is illustrated relative to DMSO treated control.
In this Example, monocyte-derived macrophage populations after pre-treatment with progesterone and progesterone metabolites were characterized.
Expression of macrophage cell surface markers is illustrated relative to DMSO treated control (see FIG. 7).

[6] = system: NF-κB pathway; test: NF-κB pathway activation in THP-1 monocytes stimulated with LPS (imaging flow cytometry); assay type: cell-based; details: THP-1 monocytes pre-treated, then LPS
[7] = system: primary uterine smooth muscle cells (UtSMC); test: IL-6 production in UtSMC stimulated with TNF-α; assay type: cell-based
Description: FIGS. 5A & 5B are graphs depicting the effect of progesterone metabolites 16αOHP and 6β-OHP on inflammation in primary uterine smooth muscle cells (UtSMC).

[8] = system: THP-1 monocyte cells; test: Flow cytometry of monocyte-derived macrophage population (PMA differentiation); assay type: cell-based; details: THP-1 pre-treated 24 hours, then PMA
Method: FIGS. 6A-6C depict flow cytometry of a monocyte-derived macrophage population pre-treated with progesterone metabolites. THP-1 monocyte cells were pre-treated with progesterone metabolites 16αOHP and 6β-OHP for 24 hours, then stimulated to differentiate to macrophages by exposure to PMA.
THP-1 monocyte cells were pre-treated with progesterone metabolites 16αOHP and 6β-OHP for 24 hours, then stimulated to differentiate to macrophages by exposure to phorbol 12-myristate 13-acetate (PMA).

[9] = system: THP-1 monocytes; test: IL-6 production in THP-1 monocytes stimulated with LPS; assay type: cell-based; details: THP-1 monocytes pretreated, then LPS; versus positive control
Method: FIG. 9 is a graph depicting the effect of progesterone and progesterone metabolites (16αOHP and 6β-OHP) on inflammation in THP-1 monocytes stimulated with LPS.
In this Example, the effect of progesterone and progesterone metabolites (16αOHP and 6β-OHP) on inflammation in THP-1 monocytes stimulated with LPS was analyzed.

[10] = system: CYP3A
[11] = maximal oxytocin dose (100 nmol/L)
[12] = maximal oxytocin dose (100 nmol/L), listed as progesterone

CC(=O)N1CCN(c2ccc(OCC3COC(Cn4ccnc4)(c4ccc(Cl)cc4Cl)O3)cc2)CC1 (stereo not drawn) [ketoconazole]
Effect on CYP3A production of 16α-OHP and 6β-OHP [1]: inhibited

CC(=O)[C@H]1CC[C@H]2[C@@H]3CCC4=CC(=O)CC[C@]4(C)[C@H]3CC[C@]12C [Progesterone]
IC50 ([2]; Mus musculus, read-out: Contractile Force IC50): 0.31 nM
IC50 ([2]; Mus musculus, read-out: Contractile Frequency IC50): 6.58 nM
Spontaneous uterine contraction frequency compared to vehicle control (in words) ([2]; maximal treatment dose): not significantly decreased
Contractile Frequency/10 min (% of baseline), Drug ([2]; maximal treatment dose): 48% of baseline
Contractile Force (% of baseline), Drug ([2]; maximal treatment dose): 43.9% of baseline
Contractile Force (% of baseline), Drug ([2]; maximal treatment dose, listed as progesterone): 43.9 % of baseline
EC50 ([3]; Mus musculus, read-out: Contractile Force EC50): 9.76 nM
EC50 ([3]; Mus musculus, read-out: Contractile Frequency EC50): 11.3 nM
Oxytocin-induced contraction frequency compared to control (in words) [3, 11]: decreased significantly
Contractile Force (% of baseline), Drug [3, 11]: 266.8% of baseline
Contractile Frequency/10 min (% of baseline), Drug [3, 11]: 141% of baseline
Contractile Force (% of baseline), Drug [3, 12]: 266.8 % of baseline
Contractile Frequency/10 min (% of baseline), Drug [3, 12]: 141 % of baseline
IL-6 [4]: 100.3 pg/mL
IL-6, % of positive control [4]: 83%
Expression of cell surface markers involved in immune response (CD14, TLR4, and HLA-DR) (in words) [5]: decreased expression
Median similarity score (NF-κB migration into the nucleus) (in words) [6]: did not affect the median similarity score

CC(=O)[C@H]1CC[C@H]2[C@@H]3C[C@@H](O)C4=CC(=O)CC[C@]4(C)[C@H]3CC[C@]12C [6β-OHP, 4-pregnen-6β-ol-3,20-dione]
Spontaneous contractile force compared with the vehicle control (in words) ([2]; maximal treatment dose): No significant difference
Spontaneous uterine contraction frequency compared to vehicle control (in words) ([2]; maximal treatment dose): not significantly decreased
Contractile Frequency/10 min (% of baseline), Drug ([2]; maximal treatment dose): 46.2% of baseline
Contractile Force (% of baseline), Drug ([2]; maximal treatment dose): 45% of baseline
IC50 ([2]; read-out: Contractile Force IC50): 0.48 nM
IC50 ([2]; read-out: Contractile Frequency IC50): 4.1 nM
Effect on oxytocin-induced uterine contractility (in words) [3]: increase
Oxytocin-induced contractile force compared to vehicle control (in words) [3, 11]: no differences
Oxytocin-induced contraction frequency compared to control (in words) [3, 11]: decreased significantly
EC50 ([3]; read-out: Contractile Force EC50): 20.9 nM
EC50 ([3]; read-out: Contractile Frequency EC50): 12.8 nM
Contractile Force (% of baseline), Drug [3, 11]: 267.6% of baseline
Contractile Frequency/10 min (% of baseline), Drug [3, 11]: 196.1% of baseline
Contractile Frequency/10 min (% of baseline), Drug ([3]; maximal oxytocin dose (100 nmol/L), listed as 6β-hydroxyprogesterone): 196 % of baseline
IL-6 [4]: 125.4 pg/mL
IL-6, % of positive control [4]: 102%
IL-6 production (in words) [7]: decreased IL-6 production
Macrophage population/phenotype compared to DMSO treated control (in words) [8]: decrease in the macrophage population/phenotype
Macrophages, % of the total population ([8]; DMSO control 77%): 52%
Inflammatory response (IL-6 production) (in words) [9]: significantly decreased IL-6 production
Production of metabolite in human liver microsomes (in words) [10]: favored
